Source: patent US7572797B2, “Amino substituted pyrazine derivatives for the treatment of pain” (Pfizer Inc., priority 2005, dated 2009)
Read-outs that look alike come from different tables or passages of the source.

Assays:
[1] = molecular target: T1, Human Nav1.8 (Homo sapiens, UniProt Q9Y5Y9); assay: VIPR assay for Nav1.8 (FRET membrane potential, deltamethrin as opener); format: cell-based; details: for IC50: HEK293 cells expressing human Nav1.8, average of replicates; for Selectivity Ratio: TTX-S IC50 / NaV1.8 IC50
T1 construct: expressed in transfected cells
T1 sequence (Q9Y5Y9 whole entry): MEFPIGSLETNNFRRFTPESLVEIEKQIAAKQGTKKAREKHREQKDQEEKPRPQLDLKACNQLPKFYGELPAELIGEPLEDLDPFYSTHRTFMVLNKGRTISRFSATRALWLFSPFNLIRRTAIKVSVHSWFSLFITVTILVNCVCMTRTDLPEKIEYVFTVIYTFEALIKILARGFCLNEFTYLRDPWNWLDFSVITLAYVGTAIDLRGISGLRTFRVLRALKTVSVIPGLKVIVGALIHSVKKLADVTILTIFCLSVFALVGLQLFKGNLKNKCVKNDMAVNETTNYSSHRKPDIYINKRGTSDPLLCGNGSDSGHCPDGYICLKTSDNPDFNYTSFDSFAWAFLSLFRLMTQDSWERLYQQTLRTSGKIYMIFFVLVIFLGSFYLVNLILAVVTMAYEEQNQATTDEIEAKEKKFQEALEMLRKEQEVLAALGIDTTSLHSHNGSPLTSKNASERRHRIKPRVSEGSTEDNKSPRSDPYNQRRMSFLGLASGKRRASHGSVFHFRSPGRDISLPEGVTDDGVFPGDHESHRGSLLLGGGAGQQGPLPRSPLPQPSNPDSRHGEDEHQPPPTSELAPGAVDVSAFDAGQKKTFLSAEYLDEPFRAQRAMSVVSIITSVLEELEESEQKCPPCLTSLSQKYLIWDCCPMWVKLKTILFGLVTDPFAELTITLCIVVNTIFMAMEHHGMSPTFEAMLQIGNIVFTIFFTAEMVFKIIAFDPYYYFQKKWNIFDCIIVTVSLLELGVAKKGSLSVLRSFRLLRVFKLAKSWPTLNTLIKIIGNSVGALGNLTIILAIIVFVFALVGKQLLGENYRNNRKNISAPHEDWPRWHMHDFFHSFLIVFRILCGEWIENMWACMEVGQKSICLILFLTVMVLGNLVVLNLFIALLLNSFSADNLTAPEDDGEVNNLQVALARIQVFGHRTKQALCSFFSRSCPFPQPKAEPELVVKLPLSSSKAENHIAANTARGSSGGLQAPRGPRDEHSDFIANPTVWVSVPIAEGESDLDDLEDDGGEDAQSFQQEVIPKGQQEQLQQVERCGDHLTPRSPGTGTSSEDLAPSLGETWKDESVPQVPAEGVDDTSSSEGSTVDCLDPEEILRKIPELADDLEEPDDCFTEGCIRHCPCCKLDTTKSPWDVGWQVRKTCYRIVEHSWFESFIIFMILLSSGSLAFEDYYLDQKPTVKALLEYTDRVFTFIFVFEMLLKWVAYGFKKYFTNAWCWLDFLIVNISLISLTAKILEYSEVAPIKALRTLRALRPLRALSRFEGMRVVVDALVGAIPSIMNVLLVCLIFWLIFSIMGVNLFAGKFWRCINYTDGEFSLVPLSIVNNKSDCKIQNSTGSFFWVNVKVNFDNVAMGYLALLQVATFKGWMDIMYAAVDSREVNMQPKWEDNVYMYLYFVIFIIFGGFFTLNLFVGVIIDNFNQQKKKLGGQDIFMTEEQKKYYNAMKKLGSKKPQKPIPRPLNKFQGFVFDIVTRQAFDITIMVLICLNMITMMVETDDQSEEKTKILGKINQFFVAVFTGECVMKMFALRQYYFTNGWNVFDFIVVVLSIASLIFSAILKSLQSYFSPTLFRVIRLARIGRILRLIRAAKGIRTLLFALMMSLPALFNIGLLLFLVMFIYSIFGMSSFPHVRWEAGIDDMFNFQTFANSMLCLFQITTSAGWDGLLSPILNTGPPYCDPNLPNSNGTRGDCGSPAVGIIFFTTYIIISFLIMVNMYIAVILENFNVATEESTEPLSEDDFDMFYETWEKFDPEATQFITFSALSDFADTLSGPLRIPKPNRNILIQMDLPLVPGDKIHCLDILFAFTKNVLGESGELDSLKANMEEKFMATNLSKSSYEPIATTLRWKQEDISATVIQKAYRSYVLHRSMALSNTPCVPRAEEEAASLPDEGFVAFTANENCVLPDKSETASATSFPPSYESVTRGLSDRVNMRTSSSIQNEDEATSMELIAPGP

[2] = test system: tetrodotoxin-sensitive voltage-gated sodium channels including NaV1.2, NaV1.3 and NaV1.7 (SHSY-5Y cell line); assay: TTX-S assay in SHSY-5Y cell line (VIPR procedure, veratridine as opener); format: cell-based; details: read-out: TTX-S IC50, SHSY-5Y cells, veratridine 50 μM, average of replicates
[3] = automated dissolution procedure

| Compound | IC50 [1, 3] [µM] | Selectivity Ratio [1, 3] | IC50 [2, 3] [µM] | IC50 ([1]; manual dissolution procedure) [µM] | Selectivity Ratio ([1]; manual dissolution procedure) | IC50 ([2]; manual dissolution procedure) [µM] |
| --- | --- | --- | --- | --- | --- | --- |
| Cn1nccc1C(=O)Nc1cnc(-c2cc(F)ccc2Cl)c(N)n1 [Example 4, N-[6-amino-5-(2-chloro-5-fluorophenyl)pyrazin-2-yl]-1-methyl-1H-pyrazole-5-carboxamide] | 8.73 | >3.46 | > 30.2 |  |  |  |
| Cn1nccc1C(=O)Nc1cnc(-c2cc(Cl)cc(Cl)c2Cl)c(N)n1 [Example 1, N-[6-Amino-5-(2,3,5-trichlorophenyl)pyrazin-2-yl]-1-methyl-1H-pyrazole-5-carboxamide] |  |  |  | 0.988 | 11.4 | 11.2 |
| CCc1noc(C)c1C(=O)Nc1cnc(-c2cc(OC)ccc2Cl)c(N)n1 [Example 31, N-[6-amino-5-(2-chloro-5-methoxyphenyl)pyrazin-2-yl]-3-ethyl-5-methylisoxazole-4-carboxamide] | 5.38 | >5.22 | > 28.1 |  |  |  |
| Cc1nocc1C(=O)Nc1cnc(-c2ccccc2Cl)c(N)n1 [Example 16, N-[6-amino-5-(2-chlorophenyl)pyrazin-2-yl]-3-methylisoxazole-4-carboxamide] | 1.01 | >23.6 | > 24 |  |  |  |
| Nc1nc(NC(=O)c2ccon2)cnc1-c1cc(Cl)cc2c1OCCO2 [Example 43, N-[6-amino-5-(7-chloro-2,3-dihydro-1,4-benzodioxin-5-yl)pyrazin-2-yl]isoxazole-3-carboxamide] | > 21.1 | ->1.43 | > 30.1 |  |  |  |
| Cn1nccc1C(=O)Nc1cnc(-c2cc(C#N)ccc2Cl)c(N)n1 [Example 11, N-[6-amino-5-(2-chloro-5-cyanophenyl)pyrazin-2-yl]-1-methyl-1H-pyrazole-5-carboxamide] | 4.47 | >6.76 | > 30.2 |  |  |  |
| COCCn1nccc1C(=O)Nc1cnc(-c2ccccc2Cl)c(N)n1 [Example 56, N-[6-amino-5-(2-chlorophenyl)pyrazin-2-yl]-1-(2-methoxyethyl)-1H-pyrazole-5-carboxamide] | > 26.7 |  | > 30.2 |  |  |  |
| COc1ccc(Cl)c(-c2ncc(NC(=O)c3ccnn3C)nc2N)c1 [Example 2, N-[6-Amino-5-(2-chloro-5-methoxyphenyl)pyrazin-2-yl]-1-methyl-1H-pyrazole-5-carboxamide] | 3.24 | 11.8 | 38.3 |  |  |  |
| COc1ccc(Cl)c(-c2ncc(NC(=O)c3cnoc3C(C)C)nc2N)c1 [Example 30, N-[6-amino-5-(2-chloro-5-methoxyphenyl)pyrazin-2-yl]-5-isopropylisoxazole-4-carboxamide] | 3.63 | >8.15 | > 29.6 |  |  |  |
| Cc1oncc1C(=O)Nc1cnc(-c2ccccc2Cl)c(N)n1 [Example 50, N-[6-amino-5-(2-chlorophenyl)pyrazin-2-yl]-5-methylisoxazole-4-carboxamide] | 10.3 | >2.90 | > 29.9 |  |  |  |
| COc1cc(Cl)cc(-c2ncc(NC(=O)c3conc3C)nc2N)c1Cl [Example 49, N-[6-Amino-5-(2,5-dichloro-3-methoxyphenyl)pyrazin-2-y]-3-methylisoxazole-4-carboxamide] | 0.629 | >21.6 | > 13.6 |  |  |  |
| COc1ccc(Cl)c(-c2ncc(NC(=O)c3ccno3)nc2N)c1 [Example 32, N-[6-amino-5-(2-chloro-5-methoxyphenyl)pyrazin-2-yl]isoxazole-5-carboxamide] | 6.12 | >4.93 | > 30.2 |  |  |  |
| COc1ccc(Cl)c(-c2ncc(NC(=O)c3nonc3C)nc2N)c1 [Example 29, N-[6-amino-5-(2-chloro-5-methoxyphenyl)pyrazin-2-yl]-4-methyl-1,2,5-oxadiazole-3-carboxamide] | 7.97 | >3.69 | > 29.4 |  |  |  |
| COCCn1nccc1C(=O)Nc1cnc(-c2cccc(Cl)c2Cl)c(N)n1 [Example 58, N-[6-amino-5-(2,3-dichlorophenyl)pyrazin-2-yl]-1-(2-methoxyethyl)-1H-pyrazole-5-carboxamide] | 9.42 | >3.21 | > 30.2 |  |  |  |
| Cc1nocc1C(=O)Nc1cnc(-c2cc(Cl)cc3c2OCCO3)c(N)n1 [Example 21, N-[6-amino-5-(7-chloro-2,3-dihydro-1,4-benzodioxin-5-yl)pyrazin-2-yl]-3-methylisoxazole-4-carboxamide] | 4.81 | 4.35 | 20.9 |  |  |  |
| COc1cc(Cl)c(Cl)c(-c2ncc(NC(=O)c3ccnn3C)nc2N)c1 [Example 12, N-[6-Amino-5-(2,3-dichloro-5-methoxyphenyl)pyrazin-2-yl]-1-methyl-1H-pyrazole-5-carboxamide] | 1.31 | 12.67 | 16.6 |  |  |  |
| COc1ccc(Cl)c(-c2ncc(NC(=O)c3ccon3)nc2N)c1 [Example 37, N-[6-amino-5-(2-chloro-5-methoxyphenyl)pyrazin-2-yl]isoxazole-3-carboxamide] | > 29.4 |  | > 30.2 |  |  |  |

| Compound | IC50 [1, 3] [µM] | Selectivity Ratio [1, 3] | IC50 [2, 3] [µM] | IC50 ([1]; manual dissolution procedure) [µM] | Selectivity Ratio ([1]; manual dissolution procedure) | IC50 ([2]; manual dissolution procedure) [µM] |
| --- | --- | --- | --- | --- | --- | --- |
| CCCc1oncc1C(=O)Nc1cnc(-c2cc(OC)ccc2Cl)c(N)n1 [Example 38, N-[6-amino-5-(2-chloro-5-methoxyphenyl)pyrazin-2-yl]-5-propylisoxazole-4-carboxamide] | > 30.2 |  | > 30.4 |  |  |  |
| COc1ccc(Cl)c(-c2ncc(NC(=O)c3c(C)noc3C)nc2N)c1 [Example 36, N-[6-amino-5-(2-chloro-5-methoxyphenyl)pyrazin-2-yl]-3,5-dimethylisoxazole-4-carboxamide] | 13.9 | >2.18 | > 30.2 |  |  |  |
| Nc1nc(NC(=O)c2ccn[nH]2)cnc1-c1cc(Cl)ccc1Cl [Example 62, N-[6-amino-5-(2,5-dichlorophenyl)pyrazin-2-yl]-1H-pyrazole-5-carboxamide] | > 30.2 |  | > 30.2 |  |  |  |
| Nc1nc(NC(=O)c2cnoc2)cnc1-c1cccc(Cl)c1Cl [Example 60, N-[6-amino-5-(2,3-dichlorophenyl)pyrazin-2-yl]isoxazole-4-carboxamide] | 7.19 | >4.20 | > 30.2 |  |  |  |
| Cc1oncc1C(=O)Nc1cnc(-c2cc(Cl)cc3c2OCCO3)c(N)n1 [Example 39, N-[6-amino-5-(7-chloro-2,3-dihydro-1,4-benzodioxin-5-yl)pyrazin-2-yl]-5-methylisoxazole-4-carboxamide] | 5.45 | >3.25 | > 17.7 |  |  |  |
| Cn1nccc1C(=O)Nc1cnc(-c2ccccc2Cl)c(N)n1 [Example 57, N-[6-amino-5-(2-chlorophenyl)pyrazin-2-yl]-1-methyl-1H-pyrazole-5-carboxamide] | > 28.4 |  | > 30.2 |  |  |  |
| COc1ccc(Cl)c(-c2ncc(NC(=O)c3conc3C)nc2N)c1 [Example 28, N-[6-amino-5-(2-chloro-5-methoxyphenyl)pyrazin-2-yl]-3-methylisoxazole-4-carboxamide] | 2.61 | 9.81 | 25.6 |  |  |  |
| COc1cc(Cl)cc(-c2ncc(NC(=O)c3cnoc3C)nc2N)c1Cl [Example 13, N-[6-amino-5-(2,5-dichloro-3-methoxyphenyl)pyrazin-2-yl]-5-methylisoxazole-4-carboxamide] | 10.4 | >2.48 | > 25.8 |  |  |  |
| COc1cc(Cl)cc(-c2ncc(NC(=O)c3cnoc3)nc2N)c1Cl [Example 48, N-[6-amino-5-(2,5-dichloro-3-methoxyphenyl)pyrazin-2-yl]isoxazole-4-carboxamide] | 8.06 | >3.75 | > 30.2 |  |  |  |
| COc1ccc(Cl)c(-c2ncc(NC(=O)c3cnoc3C)nc2N)c1 [Example 15, N-[6-amino-5-(2-chloro-5-methoxyphenyl)pyrazin-2-yl]-5-methylisoxazole-4-carboxamide] | > 30.2 |  | > 30.4 |  |  |  |
| Cn1nccc1C(=O)Nc1cnc(-c2cc(Cl)cc3c2OCCO3)c(N)n1 [Example 3, N-[6-Amino-5-(7-chloro-2,3-dihydro-1,4-benzodioxin-5-yl)pyrazin-2-yl]-1-methyl-1H-pyrazole-5-carboxamide] | 15.2 | >1.89 | > 28.8 |  |  |  |
| COCCn1nccc1C(=O)Nc1cnc(-c2cc(OC)ccc2Cl)c(N)n1 [Example 34, N-[6-amino-5-(2-chloro-5-methoxyphenyl)pyrazin-2-yl]-1-(2-methoxyethyl)-1H-pyrazole-5-carboxamide] | 15.6 |  | > 30.2 |  |  |  |
| COc1ccc(Cl)c(-c2ncc(NC(=O)c3cnoc3)nc2N)c1 [Example 33, N-[6-amino-5-(2-chloro-5-methoxyphenyl)pyrazin-2-yl]isoxazole-4-carboxamide] | > 22.7 | ->1.33 | > 30.2 |  |  |  |
| COc1cc(Cl)cc(-c2ncc(NC(=O)c3ccnn3C)nc2N)c1Cl [Example 6, N-[6-amino-5-(2,5-dichloro-3-methoxyphenyl)pyrazin-2-yl]-1-methyl-1H-pyrazole-5-carboxamide] | 4.71 | >4.25 | > 20 |  |  |  |
| Cc1nonc1C(=O)Nc1cnc(-c2ccccc2Cl)c(N)n1 [Example 55, N-[6-amino-5-(2-chlorophenyl)pyrazin-2-yl]-4-methyl-1,2,5-oxadiazole-3-carboxamide] | > 21.5 | ->1.40 | > 30.2 |  |  |  |
| Cc1nocc1C(=O)Nc1cnc(-c2cccc(Cl)c2Cl)c(N)n1 [Example 17, N-[6-amino-5-(2,3-dichlorophenyl)pyrazin-2-yl]-3-methylisoxazole-4-carboxamide] | 0.425 | 29.4 | 12.5 |  |  |  |
